From US9750481B2, “System and method for analyzing antegrade and retrograde blood flow” (Indiana University Research and Technology Corporation, priority 2014, dated 2017)
Entries after “also recorded” stand apart in the source; their conditions may differ.

Legend:
[1] = system: superficial femoral artery (SFA); assay: Shear rates in the SFA by Doppler ultrasound during 3 hours of sitting with oral Vitamin C (VIT trial); assay type: in vivo, human; details: Mean ± SD
Method: Two screening visits and two sitting trials in random sequence, one with uninterrupted sitting (SIT) and one with oral Vitamin C during the sitting time (VIT) were conducted. Specifically, SIT represents prolonged 3 hours of sitting. VIT represents prolonged sitting with intermittent vitamin C. Flow mediated dilation (FMD) was measured at 0, 1, 2 and 3 hours. Subjects ingested 1 g vitamin C at 30 minutes and 500 mg at 1 hour 30 minutes. Subjects arrived at the laboratory after an overnight fast of at least 6 hours between 7:00 AM and 9:00 AM. The arrival time was matched for both trials within each subject. Subjects were also asked to refrain from any caffeinated drink for at least 8 hours before reporting to the lab. Upon their arrival in the lab, all subjects self-reported adhering to the fasting schedule. During both trials, the subjects remained seated for 3 hours without moving their legs or feet. Subjects were allowed to move their arms, not vigorously, for example to use a computer or do light reading during the non-testing periods of the trials. Arm movement was not quantified. The flow mediated dilation (FMD) and other vascular function parameters were measured at baseline, 1 hour, 2 hours and 3 hours into testing. The two trials were performed in random order, separated by a minimum of two and a maximum of seven days. The SIT trial was uninterrupted sitting for 3 hours, whereas in the VIT trial, subjects ingested two Vitamin C tablets; 1 g at 30 minutes and 500 mg at 1 hour 30 minutes during the sitting interval. In addition to imaging the arterial dimensions, Doppler ultrasound was used to concurrently measure SFA blood velocity. Doppler flow signals were corrected at an insonation angle of 60°, and the sample volume was placed in the middle of the artery. Diameter images and Doppler measurements of blood velocity were continuously recorded for 45 seconds at baseline prior to cuff inflation. The automatic blood pressure cuff was then rapidly inflated to 250 mmHg and maintained for 5 minutes until cuff deflation. Diameter and blood velocity recordings resumed prior to cuff deflation and continued for 5 minutes after deflation. Ultrasound images were continuously recorded at 5 frames•s^-1 with […] (TechSmith, Okemos, Mich., USA), and stored as .avi files. This procedure was repeated hourly across the sitting intervals. Off-line analysis of diameters was performed using automated edge-detection software (Brachial Analyzer, Medical Imaging Applications LLC, Coralville, IA, USA). This software allows the technician to determine a region of interest where the near and far vessel walls are most clear. The vessel wall borders are then detected using an optimal graph search-based segmentation that uses a combination of pixel density and image gradient as an objective function. All analyzed images were reviewed by the technician and edited when needed to ensure that diameter measurements were always determined from the intima-lumen interface at the near and far vessel wall. Blood velocities were determined using the systems and methods described herein after automated selection of the blood flow envelop throughout the measurement. The velocity-time integral was used to calculate the mean blood velocity for each cardiac cycle. Diameters and blood velocities were not ECG-gated. The peak dilation after cuff deflation was determined using the highest 3-s moving average and was presented as a percentage change from baseline diameter (FMD %). SFA shear rate was used as an estimate of arterial shear stress and was calculated for each FMD % at baseline and during the post occlusion period using the following formula: 4•Vm•D-1 where Vm is mean blood velocity (cm• s-1) and D is mean arterial diameter (cm). All measurements and analysis were performed by a single researcher (ST) who was blinded to the participant identity and treatment condition for each image file.

SFA endothelial function = assay: Superficial femoral artery flow mediated dilation (SFA FMD) during 3 hours of sitting, SIT vs VIT trial; assay type: in vivo, human; details: oral Vitamin C 1 g at 30 minutes and 500 mg at 1 hour 30 minutes, different at 1 hour (p=0.009), 2 hours (p=0.016), 3 hours (p=0.004)
Method: Two screening visits and two sitting trials in random sequence, one with uninterrupted sitting (SIT) and one with oral Vitamin C during the sitting time (VIT) were conducted. Specifically, SIT represents prolonged 3 hours of sitting. VIT represents prolonged sitting with intermittent vitamin C. Flow mediated dilation (FMD) was measured at 0, 1, 2 and 3 hours. Subjects ingested 1 g vitamin C at 30 minutes and 500 mg at 1 hour 30 minutes. Subjects arrived at the laboratory after an overnight fast of at least 6 hours between 7:00 AM and 9:00 AM. The arrival time was matched for both trials within each subject. […] Subjects were allowed to move their arms, not vigorously, for example to use a computer or do light reading during the non-testing periods of the trials. Arm movement was not quantified. The flow mediated dilation (FMD) and other vascular function parameters were measured at baseline, 1 hour, 2 hours and 3 hours into testing. […] Endothelial function was measured using SFA FMD, measured in accordance with current guidelines. […] Diameter images and Doppler measurements of blood velocity were continuously recorded for 45 seconds at baseline prior to cuff inflation. […] Ultrasound images were continuously recorded at 5 frames•s^-1 with […] […] Blood velocities were determined using the systems and methods described herein after automated selection of the blood flow envelop throughout the measurement. […]

[2] = 1 hr, oral Vitamin C 1 g at 30 minutes
[3] = 2 hr, oral Vitamin C 1 g at 30 minutes and 500 mg at 1 hour 30 minutes
[4] = 3 hr, oral Vitamin C 1 g at 30 minutes and 500 mg at 1 hour 30 minutes
[5] = Baseline (0 hr), before Vitamin C ingestion, male subjects, sitting

Compound: O=C1O[C@H]([C@@H](O)CO)C(O)=C1O [Vitamin C]
- Antegrade shear rate in the SFA [1, 2]: 8.58 ± 6.91 s⁻¹
- Mean shear rate in the SFA [1, 2]: 4.44 ± 4.23 s⁻¹
- Antegrade shear rate in the SFA [1, 3]: 6.56 ± 3.08 s⁻¹
- Mean shear rate in the SFA [1, 3]: 2.99 ± 2.6 s⁻¹
- Antegrade shear rate in the SFA [1, 4]: 6.22 ± 2.39 s⁻¹
- Mean shear rate in the SFA [1, 4]: 3.17 ± 2.14 s⁻¹
- Antegrade shear rate in the SFA [1, 5]: 7.03 ± 3.5 s⁻¹
- Mean shear rate in the SFA [1, 5]: 5.17 ± 7.54 s⁻¹
- Effect on decline of SFA FMD % during sitting (SFA endothelial function): prevented the decline in SFA FMD; also recorded: prevented the decline in endothelial function
- Effect on decline of SFA FMD % during sitting (SFA endothelial function; listed as VIT): preventing the decline of FMD
